Laboratory results reported in patent US7264947B2, “Activity dependent neurotrophic factor III (ADNF III)” (United States of America, as represented by the Secretary …, priority 1997, dated 2007).
Values joined by “and” are separate entries in the source; they are usually repeats but may differ in a detail not shown here. Identical values can stand only once. “Also recorded” adds a separate entry of the source.

Key:
[1] = system: cerebral cortical cultures; assay type: cell-based, newborn rats; details: 1 μM tetrodotoxin, five days; P<0.01
[2] = system: cerebral cortical cultures; assay: neuroprotection against β-amyloid peptide (25-35) neurotoxicity in cerebral cortical cultures; assay type: cell-based, newborn rats; details: 25 μM β-amyloid fragment 25-35, five days; P<0.01
[3] = system: cerebral cortical cultures; assay: neuroprotection against NMDA toxicity in cerebral cortical cultures; assay type: cell-based, newborn rats; details: NMDA 10 μM
[4] = system: cerebral cortical cultures; assay: neuroprotection against gp120 toxicity in cerebral cortical cultures; assay type: cell-based, newborn rats; details: 1 pM gp120 (RFII isolate)
[5] = system: cerebral cortical cultures; assay: protection from naturally occurring cell death in cerebral cortical cultures; assay type: cell-based, newborn rats; details: FIG. 6C, no toxin added
[6] = structure-activity studies of ADNF III peptides (FIGS. 7A and 7B); assay type: cell-based
AF64A-treated animals = assay: water maze, learning and memory deficiencies associated with cholinergic blockade (AF64A); assay type: in vivo; details: rats, cholinotoxin AF64A, peptide intranasally; listed as NAPVSIPQ
Description: Protection against learning and memory deficiencies associated with cholinergic blockade was evaluated. Cholinergic blockade was obtained in rats by administration of the cholinotoxin AF64A, NAPVSIPQ (SEQ ID NO:6), which was administered intranasally and the water maze experiments were performed as before (Gozes et al., Proc. Natl. Acad. Sci. USA 93:427-432 (1996), the teachings of which are incorporated herein by reference).
The ability of ADNF III polypeptides to protect against learning and memory deficiencies associated with cholinergic blockade was also investigated. Cholinergic blockade was obtained in rats by administration of the cholinotoxin AF64A, NAPVSIPQ (SEQ ID NO:6) (termed NAP in FIG. 8). NAPVSIPQ (SEQ ID NO:6) was administered intranasally and the water maze experiments were performed as before (Gozes et al., Proc. Natl. Acad. Sci. USA 93:427-432 (1996)).

[7] = system: choline acetyl transferase; assay: brain ChAT (choline acetyl transferase) activity in ApoE-deficient mice; assay type: in vivo; details: daily subcutaneous injections from birth to 14 days, measured at 21 days
Description: The graph depicts incorporation of radio-labeled choline into acetylcholine. Experiments were conducted as described. Apo-E deficient mice are designated: ApoE; 100% activity in the control (C57B6) mice indicated 669758.4 pmole/mg protein/min. As the experiments were repeated 3-5 times the results were standardized against the control calibrated at 100% per each experiment. ApoE-deficient mice daily injected with peptides are designated ADNF-14, ADNF-9, and NAP, respectively.
ChAT activity was measured according to published procedures (Formum et al., Neurochem. 24:407-409 (1975)). Brains were homogenized with 10 volumes of 50 mM phosphate buffer containing 300 mM NaCl, 20 mM EDTA, and 0.5% triton. The homogenates were centrifuged at 12,000×g for 15 min., and […] of supernatant was mixed with […] of a solution of […] ^14C-acetyl CoA ([…] NEN), 20 mM acetylcholine, 1.6 mM choline chloride, 0.25 mM eserine, and phosphate buffer. Incubation was 15 min. at 37° C. The reaction was terminated and radioactivity was measured in a beta-counter. • 21. Apolipoprotein E (ApoE) Deficient Mouse Model
(§1) ApoE knockout mice and normal controls were a gift from the late Prof. Shlomo Eisenberg of Tel Aviv University, originally provided by Dr. J. L. Breslow (Plump et al., Cell 71:343-353 (1992)). The ApoE knockout mice were obtained from embryonic stem cells OLA 129 in C57B6×FVB mice (as described). Age-matched controls were inbred C57B6 mice. Groups of mouse pups were treated from birth until the age of 14 days. Daily subcutaneous injections included: […] saline (days 1 through 4), […] saline (days 5 through 10) and […] saline (days 11-14).
ChAT activity was measured according to published procedures (Formum et al., Neurochem. 24:407-409 (1975)).

ApoE-deficient mice [8] = assay: water maze, ApoE-deficient and control mice after treatment for the first two weeks of life; assay type: in vivo
Description: Two daily water maze trials were performed on three week-old animals. Groups tested were: 1. control animals injected with vehicle for the first two weeks of life (35 animals of six different litters, with 5-7 animals from each litter, open circles); 2. ApoE-deficient animals injected with vehicle for the first two weeks of life (18 animals derived from three different litters, with 5-7 pups per litter, closed circles); 3. control animals chronically treated with NAP for the first two weeks of life (14 animals derived from three different litters, open triangles); and 4. ApoE-deficient mice chronically treated with NAP for the first two weeks of life (19 animals derived from three different litters, open rectangles). The figure depicts latency (of the second daily trial), measured in seconds, to reach the hidden platform 0.5 min. after being on it. Tests were performed over five consecutive days, and then with a two day delay tested for one additional day. ApoE=ApoE-deficient animals. There was no differences between animals treated with vehicle and untreated animals (data not shown). Statistical comparisons shown were made: 1. between ApoE-deficient and controls; 2. between ApoE-treated with NAP and ApoE-treated with vehicle; and 3. between control-treated with NAP and control-treated with vehicle (*P<0.001; **P<0.03; ***P<0.002). […]

ApoE-deficient mice [9] = assay: developmental milestones (placing response, cliff avoidance) in ApoE-deficient mice; assay type: in vivo
Excerpt: Animals (15-37 per experimental group, 5-8 per litter) were submitted to placing response assays daily following injection of: 1. saline (open circles, C57B6 mice=control, n=37, closed circles, ApoE deficient=ApoE, n=22). Experiments were repeated three times. Score indicates: 0=no reaction, 1=time to acquire a response shorter than 15 seconds; 2=time to acquire a response shorter than 10 seconds; 3=time to acquire a response shorter than 5 seconds. Age (days) indicate: the age of the tested animals in days. Results are mean±SEM.
as §1
Developmental milestones were measured using at least three dams with […] each for every experimental point. All observations were made between 12 noon and 4 pm. From day one through day six, mice were weighed and tested 60 min. after the daily injection. Placing is a behavioral parameter that is measured as the time elapsing between contact of the foot against the edge of an object and its placing on the top of the same object.
Further measurements in the Apo-E-deficient mouse included assessments of the time of onset of developmental milestones of behavior. […] A significant difference was observed among the treatment groups on the first day of testing (P<0.0001), with inbred C57B6 mice developing faster than the ApoE-deficient animals. […] NAP-treated animals were the fastest.

Asn-Ala-Pro-Val-Ser-Ile-Pro-Gln [NAP]
concentrations of significant neuroprotection against tetrodotoxin [1]: 10^−18-10^−14 M | concentrations of significant neuroprotection against β-amyloid [2]: 10^−16 M and 10^−15 M | concentrations of significant neuroprotection against NMDA [3]: > 10^−16 M | concentrations of significant neuroprotection against gp120 [4]: 10^−15-10^−10 M | protection from naturally occurring cell death [5]: protected neurons | relative activity in structure-activity studies [6]: most active peptide | peak optimum concentrations ([6]; two peaks, listed as NAPVSIPQ): 10^−16-10^−14 M and 10^−11-10^−10 M | learning and memory in water maze (AF64A-treated animals): showed improvement in their learning and memory capacities and behaved as control animals | brain ChAT activity compared with inbred C57B6 mice [7]: not significantly different; also recorded: indistinguishable from controls | brain ChAT activity compared with vehicle-treated or untreated ApoE-deficient mice [7]: significantly improved | water maze performance (latency to hidden platform, second daily trial) (ApoE-deficient mice [8]; ApoE-deficient mice, treated first two weeks of life, tested from 21 days): performed as well as control animals; also recorded: ameliorated | water maze performance (latency to hidden platform, second daily trial) (ApoE-deficient mice [8]; control animals chronically treated for the first two weeks of life): improved their performance | placing response from the second postnatal day onwards (ApoE-deficient mice [9]; P<0.0001): best performers | acquisition of the placing response and the cliff avoidance response (ApoE-deficient mice [9]; daily injection): showed acceleration | marked improvement of placing response at the first day of treatment (ApoE-deficient mice [9]; tested 60 min. after injection): marked improvement; also recorded: the fastest
